One may read the CC50 as the concentration that lowers cell viability or growth by half. High values mean better tolerance by the cells, low ones harm at low concentration.

In the data set the test system is non-HIV-1 infected MT-4 cells. Description: Cytotoxicity: inhibition of multiplication of non-HIV-1 infected MT-4 cells (MTT method). Format: cell-based. Conditions: 6 days culture, 50% inhibition of multiplication. As to the method: HIV-1 infected MT-4 cells and non-HIV-1 infected MT-4 cells were suspended in serum culture media so that a concentration of […] cells/ml of each was attained. One hundred μl of a solution of stepwise diluted sample compound (dissolved in serum culture media), prepared in advance, was placed in each well of […] microtiter plates. Then, 100 μl of each of the above-mentioned cell suspensions was added to each well of microtiter plates, and their cells were cultured for 6 days in the presence of 5% carbon dioxide gas.
As a control, HIV-1 infected MT-4 cells and non-HIV-1 infected MT-4 cells in which no sample compound was added were cultured in the same manner.
After the cultivation, live cell number was measured based on the MTT(3-(4,5-dimethylthiazole-2-yl)-2,5-diphenyltetrazolium bromide) method (L. M. Green et al., J. Immunol, Methods, 70, 257-268(1984)). Then the cytopathic activity of HIV-1 was measured. With the cytopathic activity of HIV-1 infected MT-4 cells to which no sample compound was added as 100%, and the cytopathic activity of […] MT-4 cells to which no sample compound was added as 0%, the concentration of the specimen which inhibited the cytopathic activity of HIV-1 infected MT-4 cells by 50(IC50) was calculated. The cytotoxicity of the sample compound was determined as that concentration which inhibited the multiplication of non-HIV-1 infected MT-4 cells by 50% (CC50).
Background: Tetrazolium assays rely on reduction of a dye to a coloured formazan, in cell work by metabolically active cells.

In turn, DMT--O--AATGGGAGG--OH [Example 81] yielded a CC50 of more than 100.0 mg/L.
For DMT--O--CCG--OH [Example 74], the CC50 was more than 100.0 mg/L.
Turning to DMT--O--CGCGG--OH [Example 48], the CC50 was more than 100.0 mg/L.
In turn, DMT--O--CGGGAGG--OH [Example 29] showed a half-maximal cytotoxic concentration (CC50) of more than 100.0 mg/L.
Under DMT--O--CGGGG--OH [Example 45] stands more than 100.0 mg/L; under DMT--O--CGGGT--OH [Example 43], 100.0 mg/L.
Substance DMT--O--CTGGGAGG--OH [Example 37] yielded a CC50 of more than 100.0 mg/L.
Under DMT--O--GGGCGGGGC--OH [Example 70] stands 60.0 mg/L; under DMT--O--GGGGAGG--OH [Example 33], more than 100.0 mg/L.
For the substance DMT--O--GTGGGAGG--OH [Example 77], the CC50 is more than 100.0 mg/L.
Take DMT--O--TAGGAGG--OH [Example 71]: the CC50 was 37.0 mg/L.
In turn, DMT--O--TCGGAGG--OH [Example 75] displayed a CC50 of 40.0 mg/L.
Under DMT--O--TGCGAGG--OH [Example 32] stands more than 100.0 mg/L; under DMT--O--TGG--OH [Example 78], more than 50.0 mg/L.
With DMT--O--TGGG--OH [Example 26], the CC50 is 80.0 mg/L.
Under DMT--O--TGGGA--OH [Example 27] stands 95.0 mg/L.
Under DMT--O--TGGGAGA--OH [Example 80] stands more than 100.0 mg/L; under DMT--O--TGGGAGG--OH [Example 30], more than 100.0 mg/L.
Under DMT--O--TGGGAGGT--OH [Example 72] stands more than 100.0 mg/L; under DMT--O--TGGGAmGG [Example 79], more than 100.0 mg/L; under DMT--O--TGGGC--OH [Example 58], 50.0 mg/L.
Regarding DMT--O--TGGGCGCAG--OH [Example 73], the CC50 was more than 100.0 mg/L.
The substance DMT--O--TGGGG--OH [Example 28] gave a CC50 of more than 100.0 mg/L.
For DMT--O--TGGGT--OH [Example 57], the CC50 came to 100.0 mg/L.
DMT--O--TGmCGAGG--OH [Example 76] had a CC50 of more than 100.0 mg/L.
Under DMT--O--TTGGAGG--OH [Example 31] stands 90.0 mg/L; under DMT--O--TTGGGAGG--OH [Example 36], 100.0 mg/L.
Substance DMT--O--mCGGGAGG--OH [Example 34] had a half-maximal cytotoxic concentration (CC50) of more than 100.0 mg/L.
DMT--O--mCGmCGAGG--OH [Example 35] had a CC50 of more than 100.0 mg/L.
Under DMT-O-TGGGAG-OH [Example 25] stands more than 100.0 mg/L.
